In paper PMC10590056, “Design and synthesis of cabotegravir derivatives bearing 1,2,3-triazole and evaluation of anti-liver cancer activity” (Frontiers in Pharmacology, 2023):
Values joined by “and” are separate entries in the source; they are usually repeats but may differ in a detail not shown here. Identical values can stand only once.

Tested on: KYSE-30 cells
Assay: MTT assay for cell proliferation, KYSE-30
Assay type: cell-based
Design: key to Inhibitory rate: inhibition rate = 1 - mean A490 sample/mean A490 control (fraction)
Details: KYSE-30, first of three experiments
Procedure: (§1) HepG2, HeLa, MCF-7, and KYSE-30 cells were grown in a humidified incubator at 37°C with 5% CO2 in DMEM supplemented with 10% fetal bovine serum (FBS), […] streptomycin, and 100 U/mL penicillin.
(§2) When HepG2 cells reached 80% confluence, they were treated with 1 mL of trypsin and resuspended at a density of 10^5 cells/mL. Then, 100 μL of cell suspension was seeded into each well of a 96-well plate and incubated in a humidified atmosphere. The different concentrations of KJ-5 and KJ-12 (0, 1, 2, 4, 8, 16, and 32 μM) were added to each well, and the cells were further incubated for 48 h. Afterward, 20 μL of the MTT solution (5 mg/mL) was added to each well, and incubation was continued for another 4 h. The supernatant was discarded, and 200 μL of the DMSO solution was added to each well. The plate was shaken for 10 min in the dark. The absorbance values were measured at 490 nm using an enzyme-linked detector. The cell inhibition rate (%) was calculated using the following formula: (1-Mean A490 sample/Mean A490 control) × 100%.

SMILES | ODtreated/ODcontrol
COc1c2n(cc(C(=O)Nc3cccc(-c4cn(-c5cccc(Cl)c5)nn4)c3)c1=O)CC1OCC(C)N1C2=O (stereo not drawn) [KJ-17] | 0.4828
COc1ccccc1-n1cc(-c2cccc(NC(=O)c3cn4c(c(OC)c3=O)C(=O)N3[C@@H](C)CO[C@@H]3C4)c2)nn1 [KJ-7] | 0.5159
COc1c2n(cc(C(=O)Nc3cccc(-c4cn(-c5ccccc5)nn4)c3)c1=O)CC1OCC(C)N1C2=O (stereo not drawn) [KJ-16] | 0.634

Same assay, conditions: KYSE-30, given as fraction; first of three experiments

SMILES | Inhibitory rate
COc1c2n(cc(C(=O)Nc3cccc(-c4cn(-c5cccc(Cl)c5)nn4)c3)c1=O)CC1OCC(C)N1C2=O (stereo not drawn) [KJ-17] | 0.5172
COc1ccccc1-n1cc(-c2cccc(NC(=O)c3cn4c(c(OC)c3=O)C(=O)N3[C@@H](C)CO[C@@H]3C4)c2)nn1 [KJ-7] | 0.4841
COc1c2n(cc(C(=O)Nc3cccc(-c4cn(-c5ccccc5)nn4)c3)c1=O)CC1OCC(C)N1C2=O (stereo not drawn) [KJ-16] | 0.366

Same assay, conditions: KYSE-30, given as fraction; second of three experiments

SMILES | Inhibitory rate
COc1c2n(cc(C(=O)Nc3cccc(-c4cn(-c5cccc(Cl)c5)nn4)c3)c1=O)CC1OCC(C)N1C2=O (stereo not drawn) [KJ-17] | 0.6074
COc1ccccc1-n1cc(-c2cccc(NC(=O)c3cn4c(c(OC)c3=O)C(=O)N3[C@@H](C)CO[C@@H]3C4)c2)nn1 [KJ-7] | 0.4213
COc1c2n(cc(C(=O)Nc3cccc(-c4cn(-c5ccccc5)nn4)c3)c1=O)CC1OCC(C)N1C2=O (stereo not drawn) [KJ-16] | 0.4151

Same assay, conditions: KYSE-30, given as fraction; third of three experiments

SMILES | Inhibitory rate
COc1c2n(cc(C(=O)Nc3cccc(-c4cn(-c5cccc(Cl)c5)nn4)c3)c1=O)CC1OCC(C)N1C2=O (stereo not drawn) [KJ-17] | 0.5319
COc1ccccc1-n1cc(-c2cccc(NC(=O)c3cn4c(c(OC)c3=O)C(=O)N3[C@@H](C)CO[C@@H]3C4)c2)nn1 [KJ-7] | 0.4377
COc1c2n(cc(C(=O)Nc3cccc(-c4cn(-c5ccccc5)nn4)c3)c1=O)CC1OCC(C)N1C2=O (stereo not drawn) [KJ-16] | 0.4118

Same assay, conditions: KYSE-30, second of three experiments

SMILES | ODtreated/ODcontrol
COc1c2n(cc(C(=O)Nc3cccc(-c4cn(-c5cccc(Cl)c5)nn4)c3)c1=O)CC1OCC(C)N1C2=O (stereo not drawn) [KJ-17] | 0.3926
COc1ccccc1-n1cc(-c2cccc(NC(=O)c3cn4c(c(OC)c3=O)C(=O)N3[C@@H](C)CO[C@@H]3C4)c2)nn1 [KJ-7] | 0.5787
COc1c2n(cc(C(=O)Nc3cccc(-c4cn(-c5ccccc5)nn4)c3)c1=O)CC1OCC(C)N1C2=O (stereo not drawn) [KJ-16] | 0.5849

Same assay, conditions: KYSE-30, third of three experiments

SMILES | ODtreated/ODcontrol
COc1c2n(cc(C(=O)Nc3cccc(-c4cn(-c5cccc(Cl)c5)nn4)c3)c1=O)CC1OCC(C)N1C2=O (stereo not drawn) [KJ-17] | 0.4681
COc1ccccc1-n1cc(-c2cccc(NC(=O)c3cn4c(c(OC)c3=O)C(=O)N3[C@@H](C)CO[C@@H]3C4)c2)nn1 [KJ-7] | 0.5623
COc1c2n(cc(C(=O)Nc3cccc(-c4cn(-c5ccccc5)nn4)c3)c1=O)CC1OCC(C)N1C2=O (stereo not drawn) [KJ-16] | 0.5882

Same assay, conditions: preliminary screening, KYSE-30, 16 μM, 48 h, mean±SD; unit not given

SMILES | Inhibition rate (16μM), 48 h, KYSE-30
COc1c2n(cc(C(=O)Nc3cccc(-c4cn(-c5cccc(Cl)c5)nn4)c3)c1=O)CC1OCC(C)N1C2=O (stereo not drawn) [KJ-17] | 55.22±4.84
COc1ccccc1-n1cc(-c2cccc(NC(=O)c3cn4c(c(OC)c3=O)C(=O)N3[C@@H](C)CO[C@@H]3C4)c2)nn1 [KJ-7] | 44.77±3.26
COc1c2n(cc(C(=O)Nc3cccc(-c4cn(-c5ccccc5)nn4)c3)c1=O)CC1OCC(C)N1C2=O (stereo not drawn) [KJ-16] | 39.76±2.74

Tested on: HeLa cells
Assay: MTT assay for cell proliferation, HeLa
Assay type: cell-based
Design: key to Inhibitory rate: inhibition rate = 1 - mean A490 sample/mean A490 control (fraction)
Details: Hela; fraction, per experiment
Procedure: as §1, §2

SMILES | Inhibitory rate | ODtreated/ODcontrol
COc1c2n(cc(C(=O)Nc3cccc(-c4cn(-c5cccc(Cl)c5)nn4)c3)c1=O)CC1OCC(C)N1C2=O (stereo not drawn) [KJ-17] | 0.5384 and 0.6161 and 0.6258 | 0.4616 and 0.3839 and 0.3742
COc1ccccc1-n1cc(-c2cccc(NC(=O)c3cn4c(c(OC)c3=O)C(=O)N3[C@@H](C)CO[C@@H]3C4)c2)nn1 [KJ-7] | 0.3847 and 0.3789 and 0.3067 | 0.6153 and 0.6211 and 0.6933
COc1c2n(cc(C(=O)Nc3cccc(-c4cn(-c5ccccc5)nn4)c3)c1=O)CC1OCC(C)N1C2=O (stereo not drawn) [KJ-16] | 0.3434 and 0.3651 and 0.3539 | 0.6566 and 0.6349 and 0.6461

Same assay, conditions: preliminary screening, Hela, 16 μM, 48 h, mean±SD; unit not given

SMILES | Inhibition rate (16μM), 48 h, Hela
COc1c2n(cc(C(=O)Nc3cccc(-c4cn(-c5cccc(Cl)c5)nn4)c3)c1=O)CC1OCC(C)N1C2=O (stereo not drawn) [KJ-17] | 59.34±4.79
COc1ccccc1-n1cc(-c2cccc(NC(=O)c3cn4c(c(OC)c3=O)C(=O)N3[C@@H](C)CO[C@@H]3C4)c2)nn1 [KJ-7] | 35.68±4.35
COc1c2n(cc(C(=O)Nc3cccc(-c4cn(-c5ccccc5)nn4)c3)c1=O)CC1OCC(C)N1C2=O (stereo not drawn) [KJ-16] | 35.41±1.09

Tested on: HepG2 cells
Assay: MTT assay for cell proliferation and cytotoxicity, HepG2
Assay type: cell-based
Design: key to Inhibitory rate: inhibition rate = 1 - mean A490 sample/mean A490 control (fraction)
Details: HepG2, 48 h, MTT
Procedure: as §1, §2

SMILES | IC50 [µM]
COc1c2n(cc(C(=O)Nc3cccc(-c4cn(-c5cccc(Cl)c5)nn4)c3)c1=O)CC1OCC(C)N1C2=O (stereo not drawn) [KJ-17] | 9.83 ± 0.85
COc1ccccc1-n1cc(-c2cccc(NC(=O)c3cn4c(c(OC)c3=O)C(=O)N3[C@@H](C)CO[C@@H]3C4)c2)nn1 [KJ-7] | 21.7 ± 1.07
COc1c2n(cc(C(=O)Nc3cccc(-c4cn(-c5ccccc5)nn4)c3)c1=O)CC1OCC(C)N1C2=O (stereo not drawn) [KJ-16] | 28.82 ± 0.1

Same assay, conditions: HepG2; fraction, per experiment

SMILES | Inhibitory rate | ODtreated/ODcontrol
COc1c2n(cc(C(=O)Nc3cccc(-c4cn(-c5cccc(Cl)c5)nn4)c3)c1=O)CC1OCC(C)N1C2=O (stereo not drawn) [KJ-17] | 0.6231 and 0.6364 and 0.626 | 0.3769 and 0.3636 and 0.374
COc1ccccc1-n1cc(-c2cccc(NC(=O)c3cn4c(c(OC)c3=O)C(=O)N3[C@@H](C)CO[C@@H]3C4)c2)nn1 [KJ-7] | 0.4068 and 0.4092 and 0.416 | 0.5932 and 0.5908 and 0.584
COc1c2n(cc(C(=O)Nc3cccc(-c4cn(-c5ccccc5)nn4)c3)c1=O)CC1OCC(C)N1C2=O (stereo not drawn) [KJ-16] | 0.4156 and 0.4284 and 0.3769 | 0.5844 and 0.5716 and 0.6231

Same assay, conditions: preliminary screening, HepG2, 16 μM, 48 h, mean±SD; unit not given

SMILES | Inhibition rate (16μM), 48 h, HepG2
COc1c2n(cc(C(=O)Nc3cccc(-c4cn(-c5cccc(Cl)c5)nn4)c3)c1=O)CC1OCC(C)N1C2=O (stereo not drawn) [KJ-17] | 62.85±0.70
COc1ccccc1-n1cc(-c2cccc(NC(=O)c3cn4c(c(OC)c3=O)C(=O)N3[C@@H](C)CO[C@@H]3C4)c2)nn1 [KJ-7] | 41.07±0.48
COc1c2n(cc(C(=O)Nc3cccc(-c4cn(-c5ccccc5)nn4)c3)c1=O)CC1OCC(C)N1C2=O (stereo not drawn) [KJ-16] | 40.70±2.68

Tested on: MCF-7 cells
Assay: MTT assay for cell proliferation, MCF-7
Assay type: cell-based
Design: key to Inhibitory rate / Inhibition rate: inhibition rate = 1 - mean A490 sample/mean A490 control (fraction)
Details: MCF-7; fraction, per experiment
Procedure: as §1, §2

SMILES | Inhibitory rate | ODtreated/ODcontrol
COc1c2n(cc(C(=O)Nc3cccc(-c4cn(-c5cccc(Cl)c5)nn4)c3)c1=O)CC1OCC(C)N1C2=O (stereo not drawn) [KJ-17] | 0.5766 | 0.4234
COc1ccccc1-n1cc(-c2cccc(NC(=O)c3cn4c(c(OC)c3=O)C(=O)N3[C@@H](C)CO[C@@H]3C4)c2)nn1 [KJ-7] | 0.4361 | 0.5639
COc1c2n(cc(C(=O)Nc3cccc(-c4cn(-c5ccccc5)nn4)c3)c1=O)CC1OCC(C)N1C2=O (stereo not drawn) [KJ-16] | 0.4071 | 0.5929

Same assay, conditions: given as fraction; second of three experiments

SMILES | Inhibitory rate
COc1c2n(cc(C(=O)Nc3cccc(-c4cn(-c5cccc(Cl)c5)nn4)c3)c1=O)CC1OCC(C)N1C2=O (stereo not drawn) [KJ-17] | 0.4958
COc1ccccc1-n1cc(-c2cccc(NC(=O)c3cn4c(c(OC)c3=O)C(=O)N3[C@@H](C)CO[C@@H]3C4)c2)nn1 [KJ-7] | 0.4406
COc1c2n(cc(C(=O)Nc3cccc(-c4cn(-c5ccccc5)nn4)c3)c1=O)CC1OCC(C)N1C2=O (stereo not drawn) [KJ-16] | 0.3917

Same assay, conditions: given as fraction; third of three experiments

SMILES | Inhibition rate
COc1c2n(cc(C(=O)Nc3cccc(-c4cn(-c5cccc(Cl)c5)nn4)c3)c1=O)CC1OCC(C)N1C2=O (stereo not drawn) [KJ-17] | 0.6004
COc1ccccc1-n1cc(-c2cccc(NC(=O)c3cn4c(c(OC)c3=O)C(=O)N3[C@@H](C)CO[C@@H]3C4)c2)nn1 [KJ-7] | 0.3594
COc1c2n(cc(C(=O)Nc3cccc(-c4cn(-c5ccccc5)nn4)c3)c1=O)CC1OCC(C)N1C2=O (stereo not drawn) [KJ-16] | 0.4369

Same assay, conditions: preliminary screening, MCF-7, 16 μM, 48 h, mean±SD; unit not given

SMILES | Inhibition rate (16μM), 48 h, MCF-7
COc1c2n(cc(C(=O)Nc3cccc(-c4cn(-c5cccc(Cl)c5)nn4)c3)c1=O)CC1OCC(C)N1C2=O (stereo not drawn) [KJ-17] | 55.76±5.48
COc1ccccc1-n1cc(-c2cccc(NC(=O)c3cn4c(c(OC)c3=O)C(=O)N3[C@@H](C)CO[C@@H]3C4)c2)nn1 [KJ-7] | 41.2±4.56
COc1c2n(cc(C(=O)Nc3cccc(-c4cn(-c5ccccc5)nn4)c3)c1=O)CC1OCC(C)N1C2=O (stereo not drawn) [KJ-16] | 41.19±2.3

Same assay, conditions: second of three experiments

SMILES | ODtreated/ODcontrol
COc1c2n(cc(C(=O)Nc3cccc(-c4cn(-c5cccc(Cl)c5)nn4)c3)c1=O)CC1OCC(C)N1C2=O (stereo not drawn) [KJ-17] | 0.5042
COc1ccccc1-n1cc(-c2cccc(NC(=O)c3cn4c(c(OC)c3=O)C(=O)N3[C@@H](C)CO[C@@H]3C4)c2)nn1 [KJ-7] | 0.5594
COc1c2n(cc(C(=O)Nc3cccc(-c4cn(-c5ccccc5)nn4)c3)c1=O)CC1OCC(C)N1C2=O (stereo not drawn) [KJ-16] | 0.6083

Same assay, conditions: third of three experiments

SMILES | ODtreated/ODcontrol
COc1c2n(cc(C(=O)Nc3cccc(-c4cn(-c5cccc(Cl)c5)nn4)c3)c1=O)CC1OCC(C)N1C2=O (stereo not drawn) [KJ-17] | 0.3996
COc1ccccc1-n1cc(-c2cccc(NC(=O)c3cn4c(c(OC)c3=O)C(=O)N3[C@@H](C)CO[C@@H]3C4)c2)nn1 [KJ-7] | 0.6406
COc1c2n(cc(C(=O)Nc3cccc(-c4cn(-c5ccccc5)nn4)c3)c1=O)CC1OCC(C)N1C2=O (stereo not drawn) [KJ-16] | 0.5631
